Measurements published in patent US4221724A, “Antibiotic X-14766A” (Hoffmann-La Roche Inc., priority 1978, dated 1980).
≈ marks a conversion by molar mass, not a printed value. Where “and” joins values, the source holds several entries; their conditions need not be identical. Equal entries are not always repeated.

How the values were obtained:
[1] = toxicity (LD50) in mice; conditions: mouse, in vivo
[2] = test system: Staphylococcus aureus ATCC 6538P; test: antibacterial activity, Minimum Inhibitory Concentration (Table 4); type: cell-based; conditions: ATCC6538P
[3] = test system: Sarcina lutea ATCC 9341; test: as above; type: cell-based; conditions: Micrococcus luteus, ATCC9341
[4] = test system: Bacillus sp. E ATCC 27859; test: as above; type: cell-based; conditions: ATCC27859
[5] = test system: Bacillus subtilis Nrrl 558; test: as above; type: cell-based; conditions: NRRL558
[6] = test system: Bacillus megaterium ATCC 8011; test: as above; type: cell-based; conditions: Priestia megaterium, ATCC8011
[7] = test system: Bacillus sp. TA ATCC 27860; test: as above; type: cell-based; conditions: ATCC27860
[8] = test system: Mycobacterium phlei ATCC 355; test: as above; type: cell-based; conditions: Mycolicibacterium phlei, ATCC355
[9] = test system: Streptomyces cellulosae ATCC 3313; test: as above; type: cell-based; conditions: ATCC3313
[10] = test system: Plasmodium bergei; test: antimalarial activity against Plasmodium bergei in mice; type: in vivo
[11] = test system: Bacteroides fragilis ATCC 12290; test: in vitro activity against anaerobic bacteria, two-fold serial broth dilution (Table 5); type: cell-based; conditions: ATCC12290, trypticase soy broth, 37° C. overnight, read-out: Minimum Inhibitory Concentration
[12] = test system: Clostridium histolyticum 503-86; test: as above; type: cell-based; conditions: Hathewaya histolytica, 50386, trypticase soy broth, 37° C. overnight, read-out: Minimum Inhibitory Concentration
Description: (§1) *Two-fold serial broth dilution tests were carried out using trypticase
(§2) soy broth (TSB, BBL) as the test medium. All tests were incubated at
(§3) 37° C. overnight under anaerobic conditions.

[13] = test system: Clostridium septicum 503-34; test: as above; type: cell-based; conditions: 50334, trypticase soy broth, 37° C. overnight, read-out: Minimum Inhibitory Concentration
Description: as §1, §2, §3

[14] = test system: Treponema hyodysenteriae strain B140; test: activity against Treponema hyodysenteriae, blood agar plate dilution MIC; type: cell-based; conditions: 48 hours, 42° C., anaerobic, in µg/mL
Description: (§4) Testing for activity against Treponema hyodysenteriae, a cause of swine dysentery consisted of inoculation of blood agar plates containing a series of two and fourfold dilutions of antibiotic X-14766A and ipronidazole, an agent used in the treatment of swine dysentery, with tenfold dilutions of each of the T. hyodysenteriae strains (H 78, H 140, H 179).

[15] = test system: Treponema hyodysenteriae strain B179; test: as above; type: cell-based; conditions: Steers inoculation, 48 hours, 42° C., anaerobic, in µg/mL
Description: as §4

[16] = test system: Treponema hyodysenteriae strain B78; test: as above; type: cell-based; conditions: 48 hours, 42° C., anaerobic, in µg/mL
Description: as §4

[17] = test system: rumen fluid (in vitro rumen fermentations); design: species or system bovine; conditions: for Percent Production of Control Fermantations: Rate of Gas Production / Percent Production of Control Fermantations: Total VFA(%): rumen fluid, 240 min

Structure (SMILES)	MIC ([14]; Steers inoculation)	MIC ([14]; Syringe inoculation)	MIC [15]	MIC ([16]; Steers inoculation)	MIC ([16]; Syringe inoculation)	C3 /C2 + nC4 [17]	Percent Production of Control Fermantations: Rate of Gas Production [17]	Percent Production of Control Fermantations: Total VFA(%) [17]	also measured
CCOC(=O)C1OC(C2(C)OC3(OC4(C=CC3O)OC(C(C)C(=O)C(C)C(O)C(C)CC(C)c3c(Cl)cc(C)c(O)c3C(=O)O)C(C)CC4C)C(C)C2OC)CC1O (centres unmarked) [Antibiotic X-14766A]	< 0.04 and 0.04	0.02 and 0.04	< 0.04 and 0.02	< 0.04 and 0.02	0.02 and 0.04	0.501 and 0.488	90% and 89%	150.1% and 138.7%	LD50 ([1]; ip): 5.75 mg/kg; LD50 ([1]; po): 350 mg/kg; MIC [2]: 0.2 µg/mL (≈ 0.238 µM); MIC [3]: 0.2 µg/mL (≈ 0.238 µM); MIC [4]: 0.04 µg/mL (≈ 0.0477 µM); MIC [5]: 0.2 µg/mL (≈ 0.238 µM); MIC [6]: 0.08 µg/mL (≈ 0.0953 µM); MIC [7]: 0.08 µg/mL (≈ 0.0953 µM); MIC [8]: 0.2 µg/mL (≈ 0.238 µM); MIC [9]: 0.2 µg/mL (≈ 0.238 µM); ED50 [10]: 2.5 mg/kg; MIC [11]: 0.195 µg/mL (≈ 0.232 µM); MIC [12]: 0.0098 µg/mL (≈ 0.0117 µM); MIC [13]: 0.0098 µg/mL (≈ 0.0117 µM)
CCC(C(=O)O)C1CCC(C)C(C(C)C(O)C(C)C(=O)C(CC)C2OC3(C=CC(O)C4(CCC(C)(C5CCC(O)(CC)C(C)O5)O4)O3)C(C)CC2C)O1 (centres unmarked) [Salino]						0.497 and 0.512	83% and 90%	146.9% and 145.5%	
CC[C@@]1([C@@H]2O[C@@H]([C@H]3O[C@@](O)(CO)[C@H](C)C[C@@H]3C)C[C@@H]2C)CC[C@H]([C@]2(C)CC[C@]3(C[C@H](O)[C@@H](C)[C@@H]([C@@H](C)[C@@H](OC)[C@H](C)C(=O)O)O3)O2)O1 [Monensin]						0.565 and 0.575	89% and 85%	105.3% and 110.7%	
CC[C@@H](C(=O)O)[C@@H]1O[C@@H]([C@@H](C)[C@H](O)[C@H](C)C(=O)[C@H](CC)[C@H]2O[C@]3(C=C[C@@H](O)[C@]4(CC[C@@](C)([C@H]5CC[C@](O)(CC)[C@H](C)O5)O4)O3)[C@H](C)C[C@@H]2C)[C@@H](C)C[C@@H]1C [Narasin]						00.583 and 0.581	86% and 88%		
CC(C)c1ncc([N+](=O)[O-])n1C [Ipronidazole, ipronidazole, reference compound]	0.16 and 0.31	0.63	0.16 and 0.31	0.16 and 0.31	0.63				
